# Experimental data from the supplement of paper PMC8967900.
# Columns and labels:
# Experiment in all cases: selective drug sensitivity score (sDSS, relative to normal bone marrow) (sDSS (score)); higher = more potent and effective on the cell line relative to normal bone marrow cells
# Conditions in all cases: 72 h
# [1] = system: 380
# [2] = system: 697
# [3] = system: CCRF-HSB2
# [4] = system: COG-LL-319h
# [5] = system: COG-LL-332h
# [6] = system: COG-LL-394h
# [7] = system: COG-LL-402h
# [8] = system: DND-41
# [9] = system: HPB-ALL
# [10] = system: KASUMI-10
# [11] = system: KASUMI-9
# [12] = system: MHH-CALL-2
# [13] = system: MN-60
# [14] = system: MOLT-4
# [15] = system: NALM-16
# [16] = system: P12-ICHIKAWA
# [17] = system: PEER
# [18] = system: REH
# [19] = system: SUP-B15
# [20] = system: TMD5
# 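Also: ALL cell lines in 384-well plates, five doses spanning 10,000-fold, each plate scaled between vehicle and 100 µmol/L benzalkonium chloride controls, sDSS an adapted area-under-curve metric.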
smiles,measurement,setting,value
Cc1nc(-c2cn3c(n2)-c2ccc(-c4cnn(C(C)(C)C(N)=O)c4)cc2OCC3)n(C(C)C)n1 [Taselisib] (top concentration 1000 nM),selective drug sensitivity score,[1],7.4
same,selective drug sensitivity score,[2],3.9
same,selective drug sensitivity score,[3],2.3
same,selective drug sensitivity score,[4],4.1
same,selective drug sensitivity score,[5],0.7
same,selective drug sensitivity score,[6],-2.7
same,selective drug sensitivity score,[7],10.9
same,selective drug sensitivity score,[8],-4.3
same,selective drug sensitivity score,[9],-0.4
same,selective drug sensitivity score,[10],1.7
same,selective drug sensitivity score,[11],6.3
same,selective drug sensitivity score,[12],6.9
same,selective drug sensitivity score,[13],-0.4
same,selective drug sensitivity score,[14],3
same,selective drug sensitivity score,[15],4.2
same,selective drug sensitivity score,[16],-0.3
same,selective drug sensitivity score,[17],-4.3
same,selective drug sensitivity score,[18],5.7
same,selective drug sensitivity score,[19],-1.4
same,selective drug sensitivity score,[20],-4.3
Cn1cncc1[C@@](N)(c1ccc(Cl)cc1)c1ccc2c(c1)c(-c1cccc(Cl)c1)cc(=O)n2C [Tipifarnib] (top concentration 10000 nM),selective drug sensitivity score,[1],9.2
same,selective drug sensitivity score,[2],6.9
same,selective drug sensitivity score,[3],9.4
same,selective drug sensitivity score,[4],8.2
same,selective drug sensitivity score,[5],9.3
same,selective drug sensitivity score,[6],-1.1
same,selective drug sensitivity score,[7],6.6
same,selective drug sensitivity score,[8],2.8
same,selective drug sensitivity score,[9],6.1
same,selective drug sensitivity score,[10],3
same,selective drug sensitivity score,[11],3.1
same,selective drug sensitivity score,[12],7.8
same,selective drug sensitivity score,[13],2
same,selective drug sensitivity score,[14],6.8
same,selective drug sensitivity score,[15],9.9
same,selective drug sensitivity score,[16],9.6
same,selective drug sensitivity score,[17],10
same,selective drug sensitivity score,[18],14
same,selective drug sensitivity score,[19],8.9
same,selective drug sensitivity score,[20],6.8
CN(C)CCOc1ccc(/C(=C(/CCCl)c2ccccc2)c2ccccc2)cc1 [Toremifene] (top concentration 10000 nM),selective drug sensitivity score,[1],1.58
same,selective drug sensitivity score,[2],0.28
same,selective drug sensitivity score,[3],1.48
same,selective drug sensitivity score,[4],3.48
same,selective drug sensitivity score,[5],0.98
same,selective drug sensitivity score,[6],0.58
same,selective drug sensitivity score,[7],-2.72
same,selective drug sensitivity score,[8],6.78
same,selective drug sensitivity score,[9],-1.72
same,selective drug sensitivity score,[10],-5.42
same,selective drug sensitivity score,[11],0.58
same,selective drug sensitivity score,[12],9.68
same,selective drug sensitivity score,[13],0.78
same,selective drug sensitivity score,[14],2.58
same,selective drug sensitivity score,[15],-0.82
same,selective drug sensitivity score,[16],-1.12
same,selective drug sensitivity score,[17],1.28
same,selective drug sensitivity score,[18],-1.52
same,selective drug sensitivity score,[19],2.58
same,selective drug sensitivity score,[20],0.78
CC(=O)Nc1cccc(-n2c(=O)n(C3CC3)c(=O)c3c(Nc4ccc(I)cc4F)n(C)c(=O)c(C)c32)c1 [Trametinib] (top concentration 250 nM),selective drug sensitivity score,[1],3.56
same,selective drug sensitivity score,[2],-2.64
same,selective drug sensitivity score,[3],-1.54
same,selective drug sensitivity score,[4],-0.74
same,selective drug sensitivity score,[5],-6.04
same,selective drug sensitivity score,[6],-4.34
same,selective drug sensitivity score,[7],-2.54
same,selective drug sensitivity score,[8],2.16
same,selective drug sensitivity score,[9],-0.24
same,selective drug sensitivity score,[10],-5.34
same,selective drug sensitivity score,[11],-1.14
same,selective drug sensitivity score,[12],2.96
same,selective drug sensitivity score,[13],-8.04
same,selective drug sensitivity score,[14],-4.54
same,selective drug sensitivity score,[15],-1.24
same,selective drug sensitivity score,[16],-3.64
same,selective drug sensitivity score,[17],-4.44
same,selective drug sensitivity score,[18],-8.04
same,selective drug sensitivity score,[19],13.6
same,selective drug sensitivity score,[20],0.16
O=C(CCCCCCC(=O)Nc1ccc([C@H]2O[C@@H](CSc3nc(-c4ccccc4)c(-c4ccccc4)o3)C[C@@H](c3ccc(CO)cc3)O2)cc1)NO [Tubacin] (top concentration 10000 nM),selective drug sensitivity score,[1],20.4
same,selective drug sensitivity score,[2],8.54
same,selective drug sensitivity score,[3],15.8
same,selective drug sensitivity score,[4],15.9
same,selective drug sensitivity score,[5],14
same,selective drug sensitivity score,[6],5.44
same,selective drug sensitivity score,[7],5.04
same,selective drug sensitivity score,[8],5.54
same,selective drug sensitivity score,[9],4.44
same,selective drug sensitivity score,[10],4.54
same,selective drug sensitivity score,[11],6.54
same,selective drug sensitivity score,[12],7.74
same,selective drug sensitivity score,[13],5.44
same,selective drug sensitivity score,[14],8.34
same,selective drug sensitivity score,[15],7.14
same,selective drug sensitivity score,[16],14.9
same,selective drug sensitivity score,[17],7.14
same,selective drug sensitivity score,[18],7.44
same,selective drug sensitivity score,[19],16.5
same,selective drug sensitivity score,[20],12.9
CN1CCc2c(c3ccccc3n2Cc2ccc(C(=O)NO)cc2)C1 [Tubastatin_A] (top concentration 10000 nM),selective drug sensitivity score,[1],11.7
same,selective drug sensitivity score,[2],4.46
same,selective drug sensitivity score,[3],2.06
same,selective drug sensitivity score,[4],8.86
same,selective drug sensitivity score,[5],1.46
same,selective drug sensitivity score,[6],-0.14
same,selective drug sensitivity score,[7],7.46
same,selective drug sensitivity score,[8],2.66
same,selective drug sensitivity score,[9],6.76
same,selective drug sensitivity score,[10],2.46
same,selective drug sensitivity score,[11],8.86
same,selective drug sensitivity score,[12],3.76
same,selective drug sensitivity score,[13],2.16
same,selective drug sensitivity score,[14],-0.04
same,selective drug sensitivity score,[15],-0.14
same,selective drug sensitivity score,[16],0.36
same,selective drug sensitivity score,[17],3.36
same,selective drug sensitivity score,[18],5.86
same,selective drug sensitivity score,[19],3.46
same,selective drug sensitivity score,[20],-0.14
C[C@]1(c2nc3c(C(N)=O)cccc3[nH]2)CCCN1 [Veliparib] (top concentration 10000 nM),selective drug sensitivity score,[1],-2.78
same,selective drug sensitivity score,[2],-1.08
same,selective drug sensitivity score,[3],-2.18
same,selective drug sensitivity score,[4],1.02
same,selective drug sensitivity score,[5],-1.48
same,selective drug sensitivity score,[6],-4.18
same,selective drug sensitivity score,[7],-3.48
same,selective drug sensitivity score,[8],-4.18
same,selective drug sensitivity score,[9],-0.28
same,selective drug sensitivity score,[10],-1.08
same,selective drug sensitivity score,[11],1.72
same,selective drug sensitivity score,[12],5.02
same,selective drug sensitivity score,[13],-3.38
same,selective drug sensitivity score,[14],-2.88
same,selective drug sensitivity score,[15],-4.18
same,selective drug sensitivity score,[16],-4.18
same,selective drug sensitivity score,[17],-4.18
same,selective drug sensitivity score,[18],-4.18
same,selective drug sensitivity score,[19],-1.08
same,selective drug sensitivity score,[20],-4.18
CS(=O)(=O)c1ccc(C(=O)Nc2ccc(Cl)c(-c3ccccn3)c2)c(Cl)c1 [Vismodegib] (top concentration 10000 nM),selective drug sensitivity score,[1],0.76
same,selective drug sensitivity score,[2],-0.84
same,selective drug sensitivity score,[3],-1.14
same,selective drug sensitivity score,[4],5.56
same,selective drug sensitivity score,[5],-1.14
same,selective drug sensitivity score,[6],-1.14
same,selective drug sensitivity score,[7],-1.14
same,selective drug sensitivity score,[8],2.76
same,selective drug sensitivity score,[9],0.76
same,selective drug sensitivity score,[10],-1.14
same,selective drug sensitivity score,[11],-0.74
same,selective drug sensitivity score,[12],2.86
same,selective drug sensitivity score,[13],-1.14
same,selective drug sensitivity score,[14],-0.44
same,selective drug sensitivity score,[15],-1.14
same,selective drug sensitivity score,[16],-1.14
same,selective drug sensitivity score,[17],-0.94
same,selective drug sensitivity score,[18],-1.14
same,selective drug sensitivity score,[19],11.3
same,selective drug sensitivity score,[20],1.26
